Experimental data published in US7960131B2, “Functional genomic pore assay for mixed cell populations” (Wisconsin Alumni Research Foundation, priority 2003, dated 2011).

Columns and labels:
P2X7 receptor = assay: Bead-standardized whole blood/PBMC monocyte P2X7 pore assay with PI exclusion of nonviable cells; format: cell-based, human; conditions: for BzATP Stimulated YO-PRO-1 measurement, Mean: viable monocytes
Protocol: PBMC Isolation. Six mLs of citrate-treated blood was underlayed with three mLs of Lymphoprep (Axis-Sheild, Oslo, Norway) and centrifuged at 800 g for 30 minutes at room temperature. The cellular interface was collected and washed twice with sterile phosphate-buffered saline (PBS). Cells were counted and assayed for pore activity as described below.
Sample Preparation. Although all leukocytes studied to date express P2X7, monocytes were selected as the cell population to screen because of the greater sensitivity of pore function noted between individuals participating in a small study with forty-five healthy subjects (5, 34). Staining procedures were as previously described (10, 14, 34). Briefly, aliquots of citrated whole blood ([…]) were washed twice in HEPES-buffered saline (HBS; 130 mM NaCl, 5 mM KCl, 20 mM HEPES pH 7.4, 0.1% bovine serum albumin, 10 mM glucose; components purchased at Sigma, St. Louis, Mo.) and resuspended in the original 500 L volume. A 10 μL aliquot of anti-human CD14 antibody conjugated to phycoerythrin (CD14-PE, 50 μg/mL; BD Biosciences, San Diego, Calif.) was added to each sample and incubated at room temperature for 20 min. The cells were washed twice in a potassium glutamate buffer (130 mM potassium glutamate, 5 mM KCl, 20 mM HEPES pH 7.4, 0.1% bovine serum albumin, 10 mM glucose; components from Sigma) to maximize the differences between high and low pore activities (17).
Samples were adjusted to 10 mM magnesium chloride, washed in HEPES-buffered saline and diluted to a volume of 2.5 mL in HBS. These latter steps have been previously shown to close the pore rapidly allowing for kinetic precision in a large clinical study (10, 34). For the methods described here, including all the samples from the MIA trial (Table 3), propidium iodide (PI; 5 μg/mL) was added to each sample and incubated for 15 min prior to sample acquisition using flow cytometry as described below.
Determination of Instrument Settings and Calculation of Spectral Overlap. All instruments in the facility are cleaned daily and assessed for laser alignment, photomultiplier tube (PMT) performance, linearity and noise. All fluorochromes were excited with a 488 nm laser and the following filter sets were used in all flow cytometers: a BP 530/30 for YO-PRO-1, a BP 585/42 for PE and a LP 670 for propidium iodide. Experiments were performed on FACScan, FACSCalibur, and LSR II flow cytometers (Becton Dickinson, San Jose, Calif.) in conjunction with the CellQuest, CellQuestPro, FACSDiva acquisition and analysis software programs (v. 3.3, v. 4.0, and v. 5.0.1, respectively; Becton Dickinson).
Previously, pore activity was measured on a FACScan flow cytometer (Becton Dickinson, San Jose, Calif.) using recalled instrument settings: YO-PRO-1 at 410 mV, PE at 412 mV, acquisition threshold for PE at 324 mV, and PE-32.6% YO-PRO-1 compensation (10). To facilitate comparisons across instrument platforms and among laboratories, we used these recalled settings as a template to adapt desired PMT voltages for SpheroTM Rainbow fluorescent particles (mid-range 3.0-3.4 μm; Sperotech, Lake Forest Ill.), corresponding data shown in FIG. 15. Rainbow particles have a very stable fluorescence and can be stored and used over a long period of time, allowing the intensities of these particles in each fluorescent detector to serve as target values for determining the voltages applied to each PMT for all of the cytometers used.
The same target values were used for the analog instruments, FACScan and FACSCalibur (BD Biosciences, San Jose, Calif.) because these instruments process fluorescence signals in the same way and the intensities determined were very close (data not shown). The LSR II (BD Biosciences, San Jose, Calif.) uses digital processing and fluorescence is collected and sampled differently so a second set of target values using these same samples was determined for each color detector on this cytometer. […]

P2X7 wild type = biological target: T1, P2X7 wild type (Homo sapiens, UniProt Q99572); assay: YO-PRO-1 uptake fluorimetric plate assay in transfected HEK 293 cells, P2X7 wild type; format: cell-based; conditions: HEK cells expressing P2X7 wild type, HEPES-buffered saline
T1 construct: expressed in transfected cells
T1 sequence (Q99572 1-595): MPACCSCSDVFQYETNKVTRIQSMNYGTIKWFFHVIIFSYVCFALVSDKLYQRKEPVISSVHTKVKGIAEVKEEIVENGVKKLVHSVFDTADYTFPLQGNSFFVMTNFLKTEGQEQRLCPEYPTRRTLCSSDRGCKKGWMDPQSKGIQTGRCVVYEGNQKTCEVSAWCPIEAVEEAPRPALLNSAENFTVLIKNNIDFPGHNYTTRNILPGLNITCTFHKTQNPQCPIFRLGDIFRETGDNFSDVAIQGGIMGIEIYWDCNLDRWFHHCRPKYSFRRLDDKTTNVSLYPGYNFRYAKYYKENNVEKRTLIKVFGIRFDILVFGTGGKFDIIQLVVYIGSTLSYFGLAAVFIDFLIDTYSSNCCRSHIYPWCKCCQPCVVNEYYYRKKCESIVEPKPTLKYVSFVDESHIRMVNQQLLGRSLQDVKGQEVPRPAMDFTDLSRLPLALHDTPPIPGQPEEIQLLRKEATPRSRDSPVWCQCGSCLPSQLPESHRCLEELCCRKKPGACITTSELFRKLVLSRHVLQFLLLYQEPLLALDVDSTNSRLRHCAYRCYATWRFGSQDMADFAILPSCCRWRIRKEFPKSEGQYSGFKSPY
Text: Recombinant Expression and Functional Characterization of Variant P2RX7 Alleles. A pcDNA3 expression vector containing a cloned human P2RX7 cDNA associated with normal pore activity was subjected to point mutagenesis using the Quick Change Kit (Stratagene Inc., city, state) to create the variants P2X7-G150R, P2X7-Q460R, and P2X7-E496A. HEK 293 cells were transfected by the Superfect liposomal method and stable populations were selected by G418 resistance. Expression of P2X7 mRNA and protein in unstimulated transfected HEK cell cultures was verified by RT-PCR and immunoblotting as previously described.
YO-PRO-1 fluorescence was measured by a Synergy-HT fluorescent plate reader (Biotek, city, state) using X±Y nm excitation and A±B emission filters.

For “2′-3′-O-(4-benzoylbenzoyl)-adenosine 5′-triphosphate [Bz-ATP]”, the “BzATP Stimulated median YO-PRO-1 fluorescence” value (P2X7 receptor; Ficoll prep PBMC, A, Bead-Adjusted compensation) was 292, the “BzATP Stimulated YO-PRO-1 measurement, Mean” value (P2X7 receptor; Low Responder donor, Bead Adjusted PMT method) was 30.1 and the “BzATP Stimulated YO-PRO-1 measurement, Mean” value (P2X7 receptor; Low Responder donor, Recalled PMT method) was 30.0. The “BzATP Stimulated YO-PRO-1 measurement, Mean” value (P2X7 receptor; Normal Responder donor, Bead Adjusted PMT method) was 1019.0, the “BzATP Stimulated YO-PRO-1 measurement, Mean” value (P2X7 receptor; Normal Responder donor, Recalled PMT method) was 983.0 and the “BzATP Stimulated median YO-PRO-1 fluorescence” value (P2X7 receptor; Whole blood, A, Bead-Adjusted compensation) was 276. For the same substance, the “BzATP Stimulated median YO-PRO-1 fluorescence” value (P2X7 receptor; Whole blood, B, Uncompensated) was 30.7, the “BzATP Stimulated median YO-PRO-1 fluorescence” value (P2X7 receptor; Whole blood, B, YO-PRO-PE Set at 2%) was 27.4 and the “BzATP Stimulated median YO-PRO-1 fluorescence” value (P2X7 receptor; Whole blood, C, Uncompensated) was 1071. The “BzATP Stimulated median YO-PRO-1 fluorescence” value (P2X7 receptor; Whole blood, C, YO-PRO-PE Set at 2%) was 1067, the EC50 (P2X7 wild type) was 30 µM and the “increase of YO-PRO-1 fluorescence by Bz-ATP stimulation” value (P2X7 wild type) was “roughly four”.
